Test [1] addresses T1, GCase (Homo sapiens, UniProt P04062).
T1 sequence (P04062 40-536): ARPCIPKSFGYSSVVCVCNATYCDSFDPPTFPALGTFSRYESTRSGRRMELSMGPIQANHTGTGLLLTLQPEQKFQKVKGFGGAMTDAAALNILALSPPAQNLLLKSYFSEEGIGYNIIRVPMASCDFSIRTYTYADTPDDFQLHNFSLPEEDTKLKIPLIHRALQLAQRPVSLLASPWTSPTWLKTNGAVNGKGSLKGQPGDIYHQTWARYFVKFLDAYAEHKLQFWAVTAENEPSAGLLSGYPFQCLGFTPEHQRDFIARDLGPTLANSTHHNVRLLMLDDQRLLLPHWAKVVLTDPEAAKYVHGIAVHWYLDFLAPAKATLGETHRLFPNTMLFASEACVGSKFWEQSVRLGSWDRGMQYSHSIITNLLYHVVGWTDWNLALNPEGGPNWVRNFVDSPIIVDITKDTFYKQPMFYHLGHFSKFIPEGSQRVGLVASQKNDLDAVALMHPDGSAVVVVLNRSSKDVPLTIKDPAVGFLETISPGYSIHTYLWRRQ
The test can be described thus: GCase biochemical activity assay in wild-type fibroblast lysates. More on the design: endogenous in cells; host or cells: wild-type fibroblasts (lysate). The conditions noted are these: pH 5.6. As for the experimental part:
Lysates were prepared from wild-type fibroblasts using a lysis buffer containing 0.9% NaCl and 0.01% Triton-X100. Protein concentration was measured with a BCA protein assay kit. The cell lysates were then incubated with the specified compound for 15 min. The assay was conducted in a reaction buffer with 5 mM 4-methylumbelliferyl-beta-D-glucopyranoside in 0.1 M citrate-phosphate buffer at pH 5.6. The reactions were incubated at 37 °C for 1 h. To stop the reaction, 140 µL of 100 mM Glycine-NaOH buffer at pH 10.7 was added. The released 4-MU was measured using a Glomax® Discover microplate reader, with excitation at 340 nm and emission at 460 nm.

The target of test [2] is T1, GCase. Put plainly: Differential scanning fluorimetry (DSF) thermal stabilization of GCase. Format: binding. Further details: purchased R&D Systems. The conditions noted are these: pH 7.2, DSF, 30 µM compound, read-out: ΔTm (thermal shift relative to rhGCase alone). An excerpt: DSF is a method used to evaluate protein thermal stability and detect ligand interactions by observing how binding affects protein stability. Specifically, it examines the interaction between small molecules and the human GCase protein. DSF uses fluorescent dyes to track protein unfolding as temperature changes. As the protein unfolds due to rising temperatures, its hydrophobic regions become exposed, altering the dye’s fluorescence signal. This change helps determine the melting temperature (Tm). Variations in Tm compared to the protein alone reveal interactions with tested compounds, aiding in identifying molecules that stabilize GCase.
The ability of the compounds to stabilize the GCase protein was evaluated using DSF. This involved monitoring the thermal denaturation of the purified human native enzyme with the fluorescent probe SYPRO™ Orange (Thermo Fisher Scientific, Waltham, MA, USA), which binds to hydrophobic regions exposed during protein unfolding. Each reaction (25 μL) was conducted in triplicate in a 96-well plate. The reactions included 12.5 µL of […] rhGCase protein (R&D Systems) in a buffer of 10 mM Na3PO4, 164 mM NaCl, pH 7.2, resulting in a final protein concentration of 1 µM with SYPRO Orange 10x. Additionally, 12.5 µL of various compound solutions, initially dissolved in 100% DMSO and diluted in the protein buffer to a final concentration of 1% DMSO, were added. The fluorescence intensity of SYPRO Orange was measured as the temperature increased using the Roche LightCycler® 480 II (Roche Diagnostics). The significance of melting temperature (Tm) shifts was determined by two criteria: an absolute ∆Tm shift greater than 0.5 °C (instrumental criterion) and an absolute ΔTm standard deviation of 0.2 or less (statistical criterion). The thermal shift dose response was tested with GCase (R&D Systems) in two independent experiments, each performed in triplicate at a concentration of 30 µM for the DSF assays.
Background: DSF heats the sample and reads unfolding from a dye or from intrinsic fluorescence.

Test [3] concerns the target T2, human recombinant GCase (Cerezyme) (Homo sapiens, UniProt P04062, R534H).
T2 construct: The human full-length GCase protein (Cerezyme, wild type, not tagged; Genzyme, Naarden, The Netherlands); purchased Genzyme
T2 sequence (P04062 40-536 R534H): T1 sequence (P04062 40-536) with R495H
The test can be described thus: Surface plasmon resonance (SPR) binding to immobilized GCase. The following applies: pH 7.4; for Chi^2 / Offset: SPR fit; for Dose-response / Kd / Rmax: SPR. As for the experimental part: The surface plasmon resonance (SPR) technique is used to detect changes in the refractive index on the surface of a sensor due to changes in mass. […] Binding to GCase by SPR was confirmed for selected compounds using recombinant human GCase protein at a neutral pH of 7.4 (Figure 4A,B). […] Compounds 2 and 3, along with isofagomine (IFG) as a control, were evaluated in an activity assay using lysates from wild-type fibroblasts (Figure 4C).
All SPR experiments were performed at 20 °C using the Biacore T200 (GE Healthcare, Uppsala, Sweden). SPR detects changes in the refractive index on the sensor surface due to mass changes, which helps measure the interaction between the GCase protein (Cerezyme) and the tested compounds.
The human full-length GCase protein (Cerezyme, wild type, not tagged; Genzyme, Naarden, The Netherlands) was immobilized on an SPR CM5 sensor (29149603, GE Healthcare, Chicago, IL, USA) using standard amino coupling with a high protein concentration of 100 µg/mL. A nine-point, 2-fold serial dilution starting from 180 µM of the compound (from a 10 mM stock solution in DMSO) was tested by SPR at pH 7.4 in a buffer containing 10 mM Hepes, 5 mM EDTA, 150 mM NaCl, 0.01% Tween-20, 0.5 mg/mL CM-Dextran, and 5% DMSO. Reference channels included empty, activated, and deactivated channels on the same SPR sensor. The raw SPR signals from the active channel with immobilized GCase were adjusted by subtracting signals from the reference channel and the running buffer (double referenced) and corrected for any DMSO signal mismatch. Binding affinity values were extracted by fitting the SPR data to a four-parameter logarithmic dose-response equation without constraints using GraphPad Prism version 10.2.3.

Changes are numbered by the printed parent chain.

In general, Kd refers to a measure of binding affinity in units of concentration. With `CN(Cc1ccccc1)Cc1nc(N)nc(Nc2cccc(Br)c2)n1` [Compound 2], the “effect on GCase enzymatic activity in lysates” value on GCase [1] was “displayed inhibitory effects”. In addition, the ΔTm at 30 µM on GCase [2] is -0.1 °C. For the same compound, in test [3], the “Chi^2” value is given as 1.28 RU^2, the Offset worked out at 1.959 RU, the Dose-response result is “Yes” and the Kd came out at 29.8 µM. The Rmax in test [3] is given as 35.57 RU.

As for `CN(C(=O)c1cc(N)cc(Nc2cccc3c2OCO3)n1)c1ccccc1` [Compound 3], the “effect on GCase enzymatic activity in lysates” value at GCase [1] was “without altering its enzymatic function”. The ΔTm at 30 µM on GCase [2] is -0.64 °C. In test [3], the “Chi^2” value was 2.61 RU^2, the Offset is on record as −1.406 RU, the Dose-response entry is “Yes” and the Kd came to 50.7 µM. The Rmax in test [3] is given as 22.73 RU.

The values above are taken from publication PMC11720699, “Developing Allosteric Chaperones for GBA1-Associated Disorders—An Integrated Computational and Experimental Approach” (International Journal of Molecular Sciences, 2024).
